Assay results taken from patent US20220412975A1, “CHARACTERIZING MODULATORS OF ADAMTS-7 AND ADAMTS-12” (The Broad Institute, Inc., priority 2019, published 2022).
*: point of attachment. K(Quencher) = not defined here; Donor = not defined here; Acm = CC(=O)NC*

Assays:
Type in all cases: biochemical
[1] = target: T1, ADAMTS-7 (Homo sapiens, UniProt Q9UKP4, A119V/A123T/A127T/A171V/A193G/A200T/A28V/A36P/A42G/A66V/A78S/A97T/D77A/DEL186-188/DEL228-233/E133D/E190K/E213K/E83Q/G114S/G115N/G117S/G196D/G27H/H100Y/H124S/H234Q/K153R/L143F/L192S/L20I/P189H/P201S/P29L/P33S/P79S/Q99P/R118N/R122Q/R174Q/R195Q/R215Q/R218H/R35L/R75A/R76Q/R87Q/R92L/S170E/S199R/S202G/S214H/T110I/T125V/V182M/V208G/V74A/W225K/Y209S); assay: ADAMTS-7 enzymatic activity FRET assay, testing of inhibitory compounds
T1 construct: rat ADAMTS-7 signal peptide + prodomain (rat 1-217), fusion partner (N); 2xStrep tag (C); 6xHis tag (C); made in house; host or cells: Expi293 cells
Experimental: Purified recombinant ADAMTS-7 (as of SEQ ID NO: 1 or SEQ ID NO: 2) was diluted in reaction buffer (20 mM HEPES pH 8.0, 150 mM NaCl, 5 mM CaCl2, 0.004% Brij, 10 μM ZnCl2) for a concentration of approximately 20 nM. 25 μl of the solution were transferred into each well of a 384-well white microtiter plate (Greiner Bio-One 781075) and 1 μl test compound solution (modulator/inhibitor dissolved in DMSO, at the corresponding concentration) or pure DMSO as a control were added per well. […] Amino acids […] are derived from Thrombospondin-1 sequence (275-289). An additional carboxyl glutamic acid was added after the QXL520 quencher to increase substrate solubility. The microtiter plate was incubated for 120 min at the temperature of 32° C. The increase of fluorescence intensity was measured in appropriate fluorescence plate reader (e.g. TECAN Ultra) using excitation wavelength of 485 nm and emission wavelength of 520 nm. IC50 values were calculated from percentage of inhibition of ADAMTS-7 activity as a function of test compound concentration. IC50 values derived using functional ADAMTS-7 according to SEQ ID NO: 1 or SEQ ID NO: 2, respectively, were not distinguishable, both laying within the experimental error.
(§1) The assays to determine the IC50 for ADAMTS inhibition were performed as described earlier herein.

[2] = target: T2, ADAMTS-4 (Homo sapiens, UniProt O75173); assay: Selectivity FRET assay ADAMTS4; details: ADAMTS4 50 nM, Dabcyl-[…]-Glu(Edans)-NH2 1 μM, 120 min, 32° C.
T2 construct: purchased R&D 4307-AD
T2 sequence (O75173 213-837): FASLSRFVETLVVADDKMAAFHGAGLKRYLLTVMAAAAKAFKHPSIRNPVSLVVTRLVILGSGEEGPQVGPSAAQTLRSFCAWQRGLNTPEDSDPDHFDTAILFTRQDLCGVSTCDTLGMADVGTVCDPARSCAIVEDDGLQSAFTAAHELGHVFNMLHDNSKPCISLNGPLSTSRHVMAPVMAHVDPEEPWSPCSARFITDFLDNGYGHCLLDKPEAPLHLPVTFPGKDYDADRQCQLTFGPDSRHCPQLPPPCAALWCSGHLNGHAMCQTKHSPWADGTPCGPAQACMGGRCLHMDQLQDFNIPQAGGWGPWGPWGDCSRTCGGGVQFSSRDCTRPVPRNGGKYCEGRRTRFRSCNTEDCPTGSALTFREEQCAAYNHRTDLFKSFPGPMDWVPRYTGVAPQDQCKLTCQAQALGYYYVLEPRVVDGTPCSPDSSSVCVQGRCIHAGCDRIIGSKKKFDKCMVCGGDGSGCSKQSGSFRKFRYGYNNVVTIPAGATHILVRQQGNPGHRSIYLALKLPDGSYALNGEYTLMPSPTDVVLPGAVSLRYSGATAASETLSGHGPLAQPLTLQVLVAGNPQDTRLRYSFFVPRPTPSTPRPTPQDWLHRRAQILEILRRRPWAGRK
Experimental: The respective enzyme (see Table 4 below) was diluted in reaction buffer (50 mM Tris, 2.5 μM ZnCl2, 0.05% BSA, 0.001% Brij, pH 7.5 for ADAM17; 50 mM Tris 7.5, 150 mM NaCl, 10 mM CaCl2, 0.05% Brij for all other enzymes) to the respective concentration and 25 μl were transferred into each well of a 384-well white microtiter plate (Greiner Bio One 781075). 1 μl test compound solution (dissolved in DMSO, at the corresponding concentration) or pure DMSO as a control was added per well. The enzymatic reaction was initiated by addition of 25 μl of the respective concentration of the respective FRET substrate (see Table 4 below) in reaction buffer. The microtiter plate was incubated for 120 min at the temperature of 32° C. The increase of fluorescence intensity was measured in appropriate fluorescence plate reader (e.g. TECAN Ultra) using the respective wavelengths for excitation and emission. IC50 values were calculated from percentage of inhibition of enzyme activity as a function of test compound concentration.
Table 4. Assay conditions for the evaluation of the selectivity of ADAMTS-7 modulators. Abbreviations: Dabcyl: 4-((4-(dimethylamino)phenyl)azo)benzoic acid; Glu(Edans): L-glutamic acid-γ-[2-(1-sulfonyl-5-naphthyl)-aminoethylamide]; Mca: (7-Methoxycoumarin-4-yl)acetyl; Dap(Dnp): (2S)-3-(2,4-dinitroanilino)-2-(9H-fluoren-9-ylmethoxycarbonylamino)propanoic acid; Dpa: N-3-(2, 4-Dinitrophenyl)-L-2,3-diaminopropionyl.
as §1

[3] = target: T3, rADAMTS7 (1-575) (Rattus norvegicus, UniProt Q1EHB3); assay: FRET peptide substrate cleavage by rADAMTS7 (1-575) (SEQ ID NO: 3); details: approx. 100 nM enzyme, 10 μM peptide substrate
T3 construct: Flag (C); made in house; host or cells: Expi293 cells
T3 sequence (Q1EHB3 with tags, fused parts or gaps): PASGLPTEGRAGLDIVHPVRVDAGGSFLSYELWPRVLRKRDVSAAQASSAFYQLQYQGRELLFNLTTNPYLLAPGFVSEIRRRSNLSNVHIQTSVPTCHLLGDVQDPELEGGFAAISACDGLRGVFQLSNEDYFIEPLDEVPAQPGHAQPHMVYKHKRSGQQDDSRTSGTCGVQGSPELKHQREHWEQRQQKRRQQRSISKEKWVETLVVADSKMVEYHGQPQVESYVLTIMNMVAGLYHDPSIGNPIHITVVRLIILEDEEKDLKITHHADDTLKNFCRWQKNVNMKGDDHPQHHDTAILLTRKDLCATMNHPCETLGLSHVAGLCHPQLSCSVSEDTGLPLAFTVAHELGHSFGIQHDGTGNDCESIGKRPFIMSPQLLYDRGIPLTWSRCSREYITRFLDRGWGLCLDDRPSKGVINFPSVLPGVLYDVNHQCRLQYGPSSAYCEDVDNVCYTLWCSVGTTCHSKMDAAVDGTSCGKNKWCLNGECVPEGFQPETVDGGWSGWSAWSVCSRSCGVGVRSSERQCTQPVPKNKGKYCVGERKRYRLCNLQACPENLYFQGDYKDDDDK
Experimental: (§2) Purified recombinant ADAMTS-7 (as of SEQ ID NO: 1 or SEQ ID NO: 2) and purified recombinant rADAMTS-7 (rat ADAMTS-7 residues 1-575 with a carboxyl terminal Flag, SEQ ID NO: 3) were used to identify substrates from the TSP1 and COMP candidate peptides. ADAMTS-7 was diluted in reaction buffer (20 mM HEPES pH 8.0, 150 mM NaCl, 5 mM CaCl2, 0.004% Brij, 10 μM ZnCl2) for a concentration of approximately 100 nM and pre-incubated for 2 hr at room temperature prior to reaction start with 10 μM candidate peptide substrates. There were some differences between optimized buffer data and reported 2 mM Zn^2+ buffer data (Liu 2006 FASEB J); for example, the published amount of Zinc in assay buffer caused the purified ADAMTS-7 proteins to precipitate. Candidate FRET substrates based on SEQ ID NO: 4 to 10 were generated through custom synthesis by Anaspec—AnaSpec, EGT (34801 Campus Drive, Fremont, Calif. 94555, USA); as explained by the manufacturer; AnaSpec, EGT Group's pH insensitive HiLyte™ Fluor dyes are a series of fluorescent labeling dyes with fluorescence emissions that span the full visible and near infrared spectrum. HiLyte™ Fluor dyes and AnaSpec's proprietary quenchers QXL™ have been used as fluorophore and quencher pairs for fluorescence resonance energy transfer (FRET) in our Examples in the reaction buffer.
(§3) The TSP substrate sequences indicate the cleavage site (underlined) between glutamate and leucine as determined by mass spectrometry. COMP substrate cleavage products were below the detection limit of the mass spectrometer.

[4] = target: T4, rPro-hCD ADAMTS-7 (SEQ ID NO: 1) (Homo sapiens, UniProt Q9UKP4, A119V/A123T/A127T/A171V/A193G/A200T/A28V/A36P/A42G/A66V/A78S/A97T/D77A/DEL186-188/DEL228-233/E133D/E190K/E213K/E83Q/G114S/G115N/G117S/G196D/G27H/H100Y/H124S/H234Q/K153R/L143F/L192S/L20I/P189H/P201S/P29L/P33S/P79S/Q99P/R118N/R122Q/R174Q/R195Q/R215Q/R218H/R35L/R75A/R76Q/R87Q/R92L/S170E/S199R/S202G/S214H/T110I/T125V/V182M/V208G/V74A/W225K/Y209S); assay: FRET peptide substrate cleavage by rPro-hCD (SEQ ID NO: 1)
T4 construct: rat ADAMTS-7 signal peptide + prodomain (rat 1-217), fusion partner (N); 2xStrep tag (C); 6xHis tag (C); made in house; host or cells: Expi293 cells
Experimental: as §2, §3

[5] = target: T5, rPro-hCD-FM2 ADAMTS-7 (SEQ ID NO: 2) (Homo sapiens, UniProt Q9UKP4, A119V/A123T/A127T/A171V/A193G/A200T/A28V/A36P/A42G/A66V/A78S/A97T/D77A/DEL186-188/DEL228-233/E133D/E190K/E213K/E83Q/G114S/G115N/G117S/G196D/G27H/H100Y/H124S/H234Q/K153R/L143F/L192S/L20I/P189H/P201S/P29L/P33S/P79S/Q235K/Q99P/R118N/R122Q/R174Q/R195Q/R215Q/R218H/R35L/R75A/R76Q/R87Q/R92L/S170E/S199R/S202G/S214H/T110I/T125V/V182M/V208G/V74A/W225K/Y209S); assay: FRET peptide substrate cleavage by rPro-hCD-FM2 (SEQ ID NO: 2); details: approx. 100 nM enzyme, 10 μM peptide substrate
T5 construct: rat ADAMTS-7 signal peptide + prodomain (rat 1-217, Q216K), fusion partner (N); 2xStrep tag (C); 6xHis tag (C); made in house; host or cells: Expi293 cells
Experimental: as §2, §3

T1 sequence (Q9UKP4 with tags, fused parts or gaps with the stated changes): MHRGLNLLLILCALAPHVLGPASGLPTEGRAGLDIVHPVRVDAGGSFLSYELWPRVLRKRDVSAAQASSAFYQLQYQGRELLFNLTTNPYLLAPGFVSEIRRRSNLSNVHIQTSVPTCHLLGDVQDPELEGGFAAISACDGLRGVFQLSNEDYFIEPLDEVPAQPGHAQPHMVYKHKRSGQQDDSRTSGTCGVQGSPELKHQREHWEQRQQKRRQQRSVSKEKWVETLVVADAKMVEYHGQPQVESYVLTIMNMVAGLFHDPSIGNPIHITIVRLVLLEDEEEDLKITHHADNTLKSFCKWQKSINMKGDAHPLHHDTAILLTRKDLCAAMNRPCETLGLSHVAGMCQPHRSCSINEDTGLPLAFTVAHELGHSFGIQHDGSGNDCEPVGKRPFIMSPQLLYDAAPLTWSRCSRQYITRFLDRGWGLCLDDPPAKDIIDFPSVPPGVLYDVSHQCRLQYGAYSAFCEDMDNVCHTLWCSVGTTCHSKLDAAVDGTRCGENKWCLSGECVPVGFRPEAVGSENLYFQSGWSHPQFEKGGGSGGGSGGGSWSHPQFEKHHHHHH
T5 sequence (Q9UKP4 with tags, fused parts or gaps with the stated changes): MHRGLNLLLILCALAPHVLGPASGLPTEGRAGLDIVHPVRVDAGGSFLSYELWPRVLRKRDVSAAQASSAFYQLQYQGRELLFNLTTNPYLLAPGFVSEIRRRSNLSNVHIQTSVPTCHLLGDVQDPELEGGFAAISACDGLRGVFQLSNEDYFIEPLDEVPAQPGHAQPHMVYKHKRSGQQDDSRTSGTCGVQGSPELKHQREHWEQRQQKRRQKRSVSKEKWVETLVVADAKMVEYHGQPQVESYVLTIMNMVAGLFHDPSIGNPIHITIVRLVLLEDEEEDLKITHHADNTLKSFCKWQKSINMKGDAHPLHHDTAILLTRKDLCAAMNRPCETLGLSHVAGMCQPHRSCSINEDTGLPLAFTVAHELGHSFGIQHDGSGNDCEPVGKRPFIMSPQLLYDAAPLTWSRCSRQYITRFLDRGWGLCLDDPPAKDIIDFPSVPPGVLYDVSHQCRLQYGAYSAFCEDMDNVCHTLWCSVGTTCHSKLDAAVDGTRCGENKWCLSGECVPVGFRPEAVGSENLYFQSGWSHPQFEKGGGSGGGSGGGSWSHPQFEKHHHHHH

IC50 [1] [nM] | IC50 [2] [nM] | Molecule | also measured
480 | – | CC(C)(C)C1(CNC(=O)c2cnc(-c3ccccc3)o2)NC(=O)NC1=O (racemic) [Example 12.4, rac-{[4-tert-butyl-2,5-dioxoimidazolidin-4-yl]methyl}-2-phenyl-1,3-oxazole-5-carboxamide] | –
550 | – | O=C1NC(=O)[C@](CNC(=O)c2cc(-c3cnn(CC4CC4)c3)no2)(C2CC2)N1 [Example 12.3, N-{[(4R)-4-cyclopropyl-2,5-dioxoimidazolidin-4-yl]methyl}-3-[1-(cyclopropylmethyl)-1H-pyrazol-4-yl]-1,2-oxazole-5-carboxamide] | –
52 | 4690 | Cn1cc(-c2cc(C(=O)NC[C@@]3(C4CC4)NC(=O)NC3=O)on2)cn1 [Example 12.5, N-{[(4R)-4-cyclopropyl-2,5-dioxoimidazolidin-4-yl]methyl}-3-(1-methyl-1H-pyrazol-4-yl)-1,2-oxazole-5-carboxamide] | –
355 | 24000 | O=C1NC(=O)[C@](CNC(=O)c2cnn(-c3cnccn3)n2)(C2CC2)N1 [Example 12.2, N-{[(4R)-4-cyclopropyl-2,5-dioxoimidazolidin-4-yl]methyl}-2-(pyrazin-2-yl)-2H-1,2,3-triazole-4-carboxamide] | –
140 | 4750 | O=C1NC(=O)[C@](CNC(=O)c2cnn(-c3ccc(F)cn3)n2)(C2CC2)N1 [Example 12.1, N-{[(4R)-4-cyclopropyl-2,5-dioxoimidazolidin-4-yl]methyl}-2-(5-fluoropyridin-2-yl)-2H-1,2,3-triazole-4-carboxamide] | –
– | – | (Donor) SPGFRCEACPPGYS (K-Quencher) (Donor-SPGFRC(Acm)EAC(Acm)PPGYS-{K(Quencher)}; reading uncertain; also: printed as (Donor) SPGFRCEACPPGYS (K-Quencher)) [COMP2, FRET candidate peptide, COMP amino acids 146-159, Acm modified cysteines] | kcat, Enzyme SEQ ID NO: 3: rADAMTS7 (1-575) [3]: 8.33e-06 s⁻¹; kcat, Enzyme SEQ ID NO: 1: rPro-hCD ([4]; approx. 100 nM enzyme, 10 μM peptide substrate): 6.33e-06 s⁻¹; cleavage activity with ADAMTS-7 human catalytic domain constructs (in words) ([4]; rPro-hCD (SEQ ID NO: 1) and FM2 (SEQ ID NO: 2) constructs): No activity; kcat, Enzyme SEQ ID NO: 2: rPro-hCD-FM2 [5]: 6.5e-06 s⁻¹
